In patent publication US4698341A, “Use of 1,6-naphthyridinone derivatives in treating pulmonary thrombosis” (Godecke Aktiengesellschaft, priority 1983, dated 1987):
Like-named read-outs stand apart in the source and are kept apart here.

Legend:
tenia coli (guinea pig) = experiment: Ca2+ effect on the smooth muscles, tenia coli, inhibition of contraction amplitude; type: cell-based; settings: Cavia porcellus, 10 min, 32° C.; for inhibition: 3·10^-5 mol/l
Description: 1. Ca^2+ effect on the smooth muscles
Approximately 10 mm long, freshly isolated pieces of the tenia coli (guinea pig) were encircled at both ends with threads and connected with a mechanico-technical transducer in the organ bath (32° C., bubbled through with carbogen). Five to ten mN (0.5-1 p) were selected as mechanical pretension. […] This solution was exchanged for K+-rich and Ca++-free solution (40 mmol/l) KCl for depolarization of the cell membrane, the NaCl concentration being decreased correspondingly. One mmol/l CaCl2 was added to the nutrient solution under equilibrium conditions, resulting in a contraction of the muscle preparation. After reaching the new equilibration the test substance was added to the organ bath.
The percentage inhibition of the contraction amplitude after a ten-minute time of action of the test substance, related to the amplitude prior to administration of the substance, was calculated as substance effect. Each substance was tested in two preparations.

[1] = test system: Collagen-induced thrombocyte aggregation (platelet-rich plasma); experiment: Collagen-induced thrombocyte aggregation in vitro (rat); type: cell-based, rat (male Sprague Dawley SIV 50); settings: read-out: IC50 value, collagen-induced thrombocyte aggregation
Description: (§1) Collagen or ADP-induced thrombocyte aggregation in vitro (rat)
(§2) The test was carried out according to the method of BORN (Nature 194, 927-929, 1962). […] Blood was withdrawn from the postorbital venous plexus under ether anesthesia. Nine aliquots of blood were mixed with one aliquot of 3.8% (w/v) tri-Na-citrate solution. After low speed centrifugation of the mixture at room temperature, the platelet-rich plasma (PRP corresponding to the erythrocyte-frree supernatant) was removed and adjusted to a standard concentration of 400 000/μl. A universal aggregometer (Braun, Melsungen) connected with an Eppendorf photometer 1100M (Netheler and Hinz, Hamburg) was used as a measuring instrument. In this test portions of 700 μl of platelet-rich plasma (PRP) were equilibrated in the aggregometer at 37° C. for five minutes and then mixed with 58 μl of the test substance solution or with a 0.9% NaCl solution (corresponding to the blank value). After an incubation time of three minutes, the addition of 35 μl collagen suspension (collagen reagent HORM(®), Hormon Chemie, Munich) or 20 μl ADP solution (end concentration in the test 1×10^-5 mol/liter) causes aggregation. A compensation recorder recorded the change in transmission during the following 15 minutes.
(§3) The largest change in transmission occurring in this period was called amplitude (amp) of the aggregation curve. Aggregation-inhibiting substances produce a decrease of this amplitude; the inhibitory effect (E) of a substance is calculated according to the following formula:
(§4) E=(Ampbank value -AMPtest substance)/Ampblank value
(§5) Dose-effect curves were drawn for calculating the IC50 values.

[2] = test system: ADP-induced thrombocyte aggregation (platelet-rich plasma); experiment: ADP-induced thrombocyte aggregation in vitro (rat); type: cell-based, rat (male Sprague Dawley SIV 50); settings: read-out: IC50 value, ADP-induced thrombocyte aggregation
Description: as §1, §2, §3, §4, §5

[3] = test system: left atrium of guinea pig; experiment: Isolated left atrium of guinea pigs, inhibition of contraction amplitude; type: cell-based; settings: Cavia porcellus; approximate values from four atriums, 35° C., 100 imp/min
Description: 2. Isolated atriums of guinea pigs
In a thermostated (35° C.) dissecting dish containing modified nutrient solution acc. to Krebs-Henseleit the left atrium was cautiously separated from the ventricle myocardium by means of scissors and a needle with thread passed through the apex of the atrium and knotted. Subsequently, the basis of the atrium was fastened to the hook of a preparation holder and transferred to a thermostated organ bath containing nutrient solution (25 ml, 35° C.). In the organ bath the thread at the apex of the atrium was attached to a mechanicoelectric transducer. Electrical stimulation was effected supramaximally with a frequency of 100 imp/min (stimulation range 2.5 msec). The hook of the preparation holder represented an electrode, whereas the second electrode was designed as field electrode in the preparation holder parallel to the tensioned atrium.
The substances were cumulatively added to the organ bath at intervals of four minutes.

[4] = rat PRP 400 000/μl, 37° C., collagen, Arith. M±S.D.
[5] = rat PRP 400 000/μl, 37° C., ADP 1×10^-5 mol/liter, Arith. M±S.D.

| SMILES | IC50 [1, 4] [µM] | IC50 [2, 5] [µM] | IC50 [3] [µM] | inhibition (tenia coli (guinea pig)) [%] | inhibition at 1 µM (tenia coli (guinea pig); 10^-6 mol/l) [%] | IC50 ([1]; Rattus norvegicus) [µM] | IC50 ([2]; Rattus norvegicus) [µM] |
| --- | --- | --- | --- | --- | --- | --- | --- |
| CCOC(=O)C1=C(C)Nc2ccn(CCCN(C)C)c(=O)c2C1c1cccc(Cl)c1 (stereo not drawn) [Example 4 b., 1,4,5,6-Tetrahydro-4-(3-chlorophenyl)-6-(3-dimethylaminopropyl)-2-methyl-5-oxo-1,6-naphthyridine-3-carboxylic acid ethyl ester] | 160 ± 10 | 410 ± 50 | 300 | 57 ± 7 | – | – | – |
| CCOC(=O)C1=C(C)Nc2ccn(CCCN(C)C)c(=O)c2C1c1cccc([N+](=O)[O-])c1 (stereo not drawn) [Example 2, 1,4,5,6-Tetrahydro-6-(3-dimethylaminopropyl)-2-methyl-4-(3-nitrophenyl)-5-oxo-1,6-naphthyridine-3-carboxylic acid ethyl ester] | 160 ± 10 | 510 ± 40 | 300 | 88 ± 12 | – | – | – |
| COc1ccc(CCN(C)CCCC(C#N)(c2ccc(OC)c(OC)c2)C(C)C)cc1OC (stereo not drawn) [Verapamil, reference compound] | – | – | 2 | – | 100 | 210 ± 20 | 560 ± 60 |

Further lines, with some results ahead:

| IC50 [1, 4] [µM] | IC50 [2, 5] [µM] | IC50 [3] [µM] | SMILES | inhibition (tenia coli (guinea pig)) [%] | inhibition at 1 µM (tenia coli (guinea pig); 10^-6 mol/l) [%] | IC50 ([1]; Rattus norvegicus) [µM] | IC50 ([2]; Rattus norvegicus) [µM] |
| --- | --- | --- | --- | --- | --- | --- | --- |
| 70 ± 10 | 240 ± 10 | 100 | CCOC(=O)C1=C(C)Nc2ccn(CCCN3CCCCC3)c(=O)c2C1c1cccc([N+](=O)[O-])c1 (stereo not drawn) [Example 4 f., 1,4,5,6-Tetrahydro-2-methyl-4-(3-nitrophenyl)-5-oxo-6-(3-piperidinopropyl)-1,6-naphthyridine-3-carboxylic acid ethyl ester] | 79 ± 3 | – | – | – |
| 160 ± 20 | 330 ± 20 | 100 | CCOC(=O)C1=C(C)Nc2ccn(CCCN3CCCCC3)c(=O)c2C1c1ccccc1Cl (stereo not drawn) [Example 4 e., 1,4,5,6-Tetrahydro-4-(2-chlorophenyl)-2-methyl-5-oxo-6-(3-piperidinopropyl)-1,6-naphthyridine-3-carboxylic acid ethyl ester.1/2 ethyl acetate] | 81 ± 5 | – | – | – |
| 60 ± 10 | 180 ± 10 | 300 | CCOC(=O)C1=C(C)Nc2ccn(CCCN3CCCCC3)c(=O)c2C1c1cccc(Cl)c1 (stereo not drawn) [Example 4 c., 1,4,5,6-Tetrahydro-4-(3-chlorophenyl)-2-methyl-5-oxo-6-(3-piperidinopropyl)-1,6-naphthyridine-3-carboxylic acid ethyl ester] | 44 ± 6 | – | – | – |
